Test results from the NIST ThermoML archive (doi:10.1021/je700096m).
± gives the expanded uncertainty stated by the source.

Test: xn = mol fraction of the nth substance listed
Settings: 298.15 K, Liquid

CCCCCCCl [1-chlorohexane] + CC(=O)N(C)C
mass density [kg/m3]
Settings	x2 = 0.0952	x2 = 0.2003	x2 = 0.3011	x2 = 0.4036	x2 = 0.503	x2 = 0.6051	x2 = 0.6992	x2 = 0.8013	x2 = 0.8996
100 kPa	877.1 ± 0.5	881.6 ± 0.5	886.4 ± 0.5	891.9 ± 0.5	897.5 ± 0.5	903.8 ± 0.4	910.4 ± 0.4	918.4 ± 0.4	926.8 ± 0.4
2000 kPa	878.7 ± 0.5	883.2 ± 0.5	888 ± 0.5	893.41 ± 0.48	899 ± 0.5	905.2 ± 0.5	911.7 ± 0.5	919.7 ± 0.5	928.1 ± 0.4
4000 kPa	880.4 ± 0.5	884.8 ± 0.5	889.5 ± 0.5	895 ± 0.5	900.4 ± 0.5	906.7 ± 0.5	913.1 ± 0.5	921 ± 0.5	929.3 ± 0.5
6000 kPa	882 ± 0.6	886.4 ± 0.6	891.2 ± 0.6	896.5 ± 0.5	901.9 ± 0.5	908.1 ± 0.5	914.5 ± 0.5	922.3 ± 0.5	930.5 ± 0.5
8000 kPa	883.6 ± 0.6	888 ± 0.6	892.7 ± 0.6	898 ± 0.6	903.4 ± 0.6	909.5 ± 0.5	915.9 ± 0.5	923.6 ± 0.5	931.7 ± 0.5
10000 kPa	885.3 ± 0.6	889.6 ± 0.6	894.3 ± 0.6	899.6 ± 0.6	904.9 ± 0.6	910.9 ± 0.6	917.3 ± 0.5	925 ± 0.5	933.1 ± 0.5
11900 kPa	–	–	–	–	–	–	918.6 ± 0.6	–	–
12000 kPa	886.8 ± 0.7	891.2 ± 0.7	895.8 ± 0.6	901 ± 0.6	906.3 ± 0.6	912.3 ± 0.6	–	926.3 ± 0.5	934.3 ± 0.5
14000 kPa	888.4 ± 0.7	892.78 ± 0.68	897.2 ± 0.7	902.4 ± 0.7	907.6 ± 0.6	913.6 ± 0.6	919.9 ± 0.6	927.5 ± 0.6	935.5 ± 0.5
16000 kPa	889.9 ± 0.7	894.1 ± 0.7	898.7 ± 0.7	903.8 ± 0.7	909 ± 0.7	914.9 ± 0.6	921.2 ± 0.6	928.7 ± 0.6	936.6 ± 0.6
18000 kPa	891.3 ± 0.8	895.6 ± 0.7	900.1 ± 0.7	905.2 ± 0.7	910.3 ± 0.7	916.2 ± 0.7	922.6 ± 0.6	929.9 ± 0.6	937.7 ± 0.6
20000 kPa	892.9 ± 0.8	897.2 ± 0.8	901.8 ± 0.7	–	911.8 ± 0.7	917.7 ± 0.67	924 ± 0.6	931.3 ± 0.6	–
20100 kPa	–	–	–	906.8 ± 0.7	–	–	–	–	939 ± 0.6
